For 1 compound, IC50, EC50 and Kd results are on record in patent US6855512B2, “Methods for identifying inhibitors of cytochrome P450RAI” (Allergan, Inc., priority 2000, dated 2005).

Assay [1] deals with T1, P450RAI-1 (Homo sapiens, UniProt O43174).
T1 construct: expressed in transfected cells; host or cells: HeLa (stably transfected, hygromycin selection)
T1 sequence (O43174 1-497): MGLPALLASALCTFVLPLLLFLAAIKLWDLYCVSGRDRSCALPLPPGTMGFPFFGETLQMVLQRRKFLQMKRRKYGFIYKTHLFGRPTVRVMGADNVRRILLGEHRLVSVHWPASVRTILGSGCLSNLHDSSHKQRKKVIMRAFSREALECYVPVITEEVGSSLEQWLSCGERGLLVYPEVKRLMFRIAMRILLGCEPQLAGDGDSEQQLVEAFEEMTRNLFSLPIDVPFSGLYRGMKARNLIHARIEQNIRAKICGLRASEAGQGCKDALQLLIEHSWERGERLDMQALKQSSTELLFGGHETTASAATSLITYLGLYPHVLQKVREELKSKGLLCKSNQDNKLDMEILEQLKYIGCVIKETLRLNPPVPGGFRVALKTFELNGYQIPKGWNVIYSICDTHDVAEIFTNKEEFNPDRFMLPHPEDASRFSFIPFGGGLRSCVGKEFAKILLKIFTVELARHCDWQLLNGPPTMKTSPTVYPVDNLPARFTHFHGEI
Description: P450RAI-1 cell-based inhibitor assay (intact HeLa). To be noted: read-out: P450RAI INHIBITION DATA INTACT HELA IC50. The procedure:
P450RAI-1 Cell-Based Inhibitor Assay:
P450RAI-1 stably transfected HeLa cells are maintained in […] tissue culture dishes in Modified Eagle's Medium (MEM) containing 10% Fetal Bovine Serum (FBS) and 100 μg/ml hygromycin. Exponentially growing cells are harvested by incubating in trypsin. Cells are then washed with 1× Phosphate Buffered Saline (PBS) and plated in a 48-well plate at 5×10^5 cells in 0.2 ml MEM medium containing 10% FBS and 0.05 μCi [^3H]-RA in the presence or absence of increasing concentrations of the test compounds. The compounds are diluted in 100% DMSO and then added in triplicate wells at either 10, 1 or 0.1 μM final concentration. As a positive control for RA metabolism inhibition, cells are also incubated with ketoconazole at 100, 10 and 1 μM. Cell are incubated for 3 hours at 37° C. […] The water soluble radioactivity is quantified using β-scintillation counter. IC50 values represent the concentration of inhibitor required to inhibit all-trans-RA metabolism by 50 percent and are derived manually from log-transformed data.

The target in assay [2] is T2, RARβ (Homo sapiens, UniProt P10826).
T2 sequence (P10826 183-417 limits assumed): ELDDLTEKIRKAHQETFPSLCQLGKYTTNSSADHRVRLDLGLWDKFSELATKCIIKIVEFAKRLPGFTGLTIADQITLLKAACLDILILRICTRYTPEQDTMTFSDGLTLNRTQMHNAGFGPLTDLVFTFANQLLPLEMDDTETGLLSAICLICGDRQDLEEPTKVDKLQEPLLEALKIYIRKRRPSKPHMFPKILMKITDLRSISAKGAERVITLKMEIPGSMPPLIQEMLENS
Description: chimeric receptor transactivation assay, RARβ. In kind it is cell-based. The following applies: EC50 line of EC50/(EFFICACY)/Kd, read-out: RAR β EC50. The source says: (§1) Assays described below measure the ability of a compound to bind to, and/or activate various retinoid receptor subtypes. When in these assays a compound binds to a given receptor subtype and activates the transcription of a reporter gene through that subtype, then the compound is considered an agonist of that receptor subtype. […] In the below described assays the ability of the compounds to bind to RARα, RARβ, RARγ, RXRα, RXRβ and RXRγ receptors, and the ability or inability of the compounds to activate transcription of a reporter gene through these receptor subtypes can be tested.
(§2) The results obtained in this assay are expressed in EC50 numbers, as they are also in the chimeric receptor transactivation assay. The results of ligand binding assay are expressed in Kd numbers.

In assay [3] the target is T3, RARα (Homo sapiens, UniProt P10276).
T3 sequence (P10276 1-462): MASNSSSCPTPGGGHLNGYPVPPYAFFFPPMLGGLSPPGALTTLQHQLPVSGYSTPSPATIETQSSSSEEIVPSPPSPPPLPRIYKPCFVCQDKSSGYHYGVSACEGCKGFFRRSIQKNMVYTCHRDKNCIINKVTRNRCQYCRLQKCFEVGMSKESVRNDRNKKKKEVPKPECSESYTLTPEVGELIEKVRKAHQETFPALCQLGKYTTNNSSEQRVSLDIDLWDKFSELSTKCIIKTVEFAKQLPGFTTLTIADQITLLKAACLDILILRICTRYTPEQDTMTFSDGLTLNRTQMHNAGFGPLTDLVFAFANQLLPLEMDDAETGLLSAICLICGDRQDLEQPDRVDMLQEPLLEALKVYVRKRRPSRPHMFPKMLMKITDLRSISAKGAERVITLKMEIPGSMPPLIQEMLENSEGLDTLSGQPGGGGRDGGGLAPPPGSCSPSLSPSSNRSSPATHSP
Description: ligand binding assay, RARα. To be noted: Kd line of EC50/(EFFICACY)/Kd, K = thousand, read-out: RAR α Kd.
Text: as §1, §2

The target in assay [4] is T4, RARβ (Homo sapiens, UniProt P10826).
T4 sequence (P10826 1-455): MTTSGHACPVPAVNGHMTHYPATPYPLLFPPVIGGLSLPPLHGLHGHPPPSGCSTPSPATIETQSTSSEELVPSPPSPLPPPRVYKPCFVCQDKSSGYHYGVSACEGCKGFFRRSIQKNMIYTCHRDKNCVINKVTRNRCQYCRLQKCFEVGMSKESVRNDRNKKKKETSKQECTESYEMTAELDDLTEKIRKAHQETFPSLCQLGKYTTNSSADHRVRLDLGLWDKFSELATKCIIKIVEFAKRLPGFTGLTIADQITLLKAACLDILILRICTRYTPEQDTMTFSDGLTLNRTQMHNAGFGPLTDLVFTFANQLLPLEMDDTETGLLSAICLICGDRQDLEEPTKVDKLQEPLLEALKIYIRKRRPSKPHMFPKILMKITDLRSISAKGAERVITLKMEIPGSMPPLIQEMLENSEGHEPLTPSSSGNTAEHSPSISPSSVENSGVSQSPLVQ
Briefly: ligand binding assay, RARβ. The following applies: Kd line of EC50/(EFFICACY)/Kd, K = thousand, read-out: RAR β Kd.
Text: as §1, §2

Consider `CC1(C)CC(C)(C)c2cc(C#Cc3ccc(C(=O)O)cc3)ccc2O1` [Compound 201], for which the IC50 (commonly the concentration that inhibits the measured activity by half) in assay [1] was found to be 520 nM. The EC50 (usually the concentration that produces a half-maximal response) in assay [2] is above 10000 nM. The Kd (as a rule, a measure of binding affinity in units of concentration) in assay [3] was determined as 90 nM; in assay [4], 1100 nM.
